Data published in ChEMBL document CHEMBL4825750, “Evaluation of Elaiophylin extracted from Streptomyces hygroscopicus as a potential inhibitor of the NorA efflux protein in Staphylococcus aureus: An in vitro and in silico approach” (2021).
≈ marks a conversion by molar mass, not a printed value. Calls of active or inactive are those of the source. The calls are words filed in the database; no cut-off is given here.

Tests used:
[1] = biological target: T1, Quinolone resistance protein NorA (Staphylococcus aureus) (UniProt P0A0J7); experiment: Inhibition of NorA in Staphylococcus aureus SA-1199B assessed as potentiation of ethidium bromide-mediated antibacterial activity by measuring ethidium bromide MIC incubated for 24 hrs by resazurin assay
T1 sequence (whole entry): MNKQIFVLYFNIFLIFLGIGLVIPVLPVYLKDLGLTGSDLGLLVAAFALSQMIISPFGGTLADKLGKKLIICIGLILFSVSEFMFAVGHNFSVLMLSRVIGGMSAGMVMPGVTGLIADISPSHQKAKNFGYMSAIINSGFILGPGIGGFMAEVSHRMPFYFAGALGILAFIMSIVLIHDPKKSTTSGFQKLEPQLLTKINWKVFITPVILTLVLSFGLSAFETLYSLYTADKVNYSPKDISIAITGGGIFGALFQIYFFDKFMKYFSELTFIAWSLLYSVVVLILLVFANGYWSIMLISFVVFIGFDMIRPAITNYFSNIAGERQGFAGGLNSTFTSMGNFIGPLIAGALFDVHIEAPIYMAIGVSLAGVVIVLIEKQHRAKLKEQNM

[2] = biological target: T1, Quinolone resistance protein NorA (Staphylococcus aureus); experiment: Inhibition of NorA in Staphylococcus aureus SA-1199 assessed as potentiation of norfloxacin-mediated antibacterial activity by measuring norfloxacin MIC incubated for 24 hrs by resazurin assay
[3] = biological target: T1, Quinolone resistance protein NorA (Staphylococcus aureus); experiment: Inhibition of NorA in Staphylococcus aureus SA-1199 assessed as potentiation of ethidium bromide-mediated antibacterial activity by measuring ethidium bromide MIC incubated for 24 hrs by resazurin assay
[4] = biological target: T1, Quinolone resistance protein NorA (Staphylococcus aureus); experiment: Inhibition of NorA in Staphylococcus aureus SA-1199B assessed as potentiation of norfloxacin-mediated antibacterial activity by measuring norfloxacin MIC incubated for 24 hrs by resazurin assay
Staphylococcus aureus [5] = experiment: Decrease in NorA gene expression in Staphylococcus aureus SA-1199B by RT-qPCR; assay type: functional
Staphylococcus aureus [6] = experiment: Antibacterial activity against Staphylococcus aureus SA-1199B overexpressing NorA incubated for 24 hrs by broth microdilution method; assay type: functional
Staphylococcus aureus [7] = experiment: Decrease in NorA gene expression in Staphylococcus aureus SA-1199B in combination with norfloxacin by RT-qPCR; assay type: functional
Staphylococcus aureus [8] = experiment: Antibacterial activity against wild-type Staphylococcus aureus SA-1199 incubated for 24 hrs by broth microdilution method; assay type: functional

`N#CC(C#N)=NNc1cccc(Cl)c1` gave an MIC [1] of 8 µg/mL, an MIC [2] of 8 µg/mL and an MIC [3] of 4 µg/mL. The MIC [4] was 8 µg/mL.

In the case of `CC[C@@H]1[C@@H](C)O[C@@](O)([C@@H](C)[C@H](O)[C@H](C)[C@H]2OC(=O)/C=C/C=C/[C@H](C)[C@@H]([C@@H](C)[C@@H](O)[C@H](C)[C@@]3(O)C[C@@H](O[C@H]4C[C@H](O)[C@H](O)[C@H](C)O4)[C@H](CC)[C@@H](C)O3)OC(=O)/C=C/C=C/[C@@H]2C)C[C@H]1O[C@H]1C[C@H](O)[C@H](O)[C@H](C)O1`, the MIC [1] is reported as 1 µg/mL, the Activity (Staphylococcus aureus [5]) is reported as “Active” and the MIC [2] is reported as 1 µg/mL. For the same compound, the MIC (Staphylococcus aureus [6]) was 0.5 µg/mL (≈ 0.488 µM), the Activity (Staphylococcus aureus [7]) was “Active” and the MIC [3] was 1 µg/mL. It also gave an MIC [4] of 1 µg/mL and an MIC (Staphylococcus aureus [8]) of 0.5 µg/mL (≈ 0.488 µM).

`CCn1cc(C(=O)O)c(=O)c2cc(F)c(N3CCNCC3)cc21` [NORFLOXACIN] showed an MIC (Staphylococcus aureus [6]) of 256 µg/mL (≈ 802 µM) and an MIC (Staphylococcus aureus [8]) of 64 µg/mL (≈ 200 µM).
